Data set [1] addresses Cytochrome P450 3A4 (Homo sapiens, UniProt P08684). The note with it: bti-tn-5b1-4.
Data set [2] addresses T1, Adenosine receptor A3 (Homo sapiens, UniProt P0DMS8).
T1 sequence (P0DMS8 whole entry): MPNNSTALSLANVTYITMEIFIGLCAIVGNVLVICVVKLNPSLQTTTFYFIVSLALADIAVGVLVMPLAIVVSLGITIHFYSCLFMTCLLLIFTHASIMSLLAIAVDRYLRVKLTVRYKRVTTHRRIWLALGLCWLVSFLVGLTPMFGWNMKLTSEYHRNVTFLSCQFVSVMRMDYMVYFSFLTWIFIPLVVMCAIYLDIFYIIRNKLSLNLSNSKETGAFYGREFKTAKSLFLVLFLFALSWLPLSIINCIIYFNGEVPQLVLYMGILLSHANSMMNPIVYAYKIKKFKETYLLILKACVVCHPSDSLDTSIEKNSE
The data set is classed as cell membranes, CHO-K1, Membrane.

Data set [3] in a line: DRUGMATRIX: Calcium Channel Type L, Dihydropyridine radioligand binding (ligand: [3H] Nitrendipine). The data set is classed as cell membranes, Rattus norvegicus, Wistar, Cerebral cortex, Membrane. The note with it: Not Active = under 50% inhibition at 10 µM.
For data set [4], the target named is 5-hydroxytryptamine receptor 2B (Homo sapiens, UniProt P41595). The class given is cell membranes, CHO-K1, Membrane. Further: in other assays of this panel Not Active means under 50% inhibition at 10 µM.
Data set [5] can be described thus: DRUGMATRIX: Calcium Channel Type L, Benzothiazepine radioligand binding (ligand: [3H] Diltiazem). The data set is classed as cell membranes, Rattus norvegicus, Wistar, Brain, Membrane. As to conditions: Not Active = under 50% inhibition at 10 µM.
Data set [6] concerns the target T2, Vasoactive intestinal polypeptide receptor 1 (Homo sapiens, UniProt P32241). Further: in other assays of this panel Not Active means under 50% inhibition at 10 µM.
T2 sequence (P32241 whole entry): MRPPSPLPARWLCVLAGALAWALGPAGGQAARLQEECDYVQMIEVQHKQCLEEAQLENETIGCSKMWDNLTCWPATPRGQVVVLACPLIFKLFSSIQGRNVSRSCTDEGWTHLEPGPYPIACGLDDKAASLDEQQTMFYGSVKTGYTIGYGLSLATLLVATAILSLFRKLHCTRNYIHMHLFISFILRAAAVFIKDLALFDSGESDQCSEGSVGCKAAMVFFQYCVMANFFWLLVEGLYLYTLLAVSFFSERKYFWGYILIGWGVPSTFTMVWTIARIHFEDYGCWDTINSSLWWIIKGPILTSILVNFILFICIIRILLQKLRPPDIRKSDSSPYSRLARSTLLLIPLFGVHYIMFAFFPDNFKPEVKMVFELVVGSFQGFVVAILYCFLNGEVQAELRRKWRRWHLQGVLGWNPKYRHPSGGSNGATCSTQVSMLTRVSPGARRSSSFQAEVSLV
The data set is classed as cell membranes, Membrane. As to conditions: ht-29.

Structures are written as SMILES.

Chain of Cytochrome P450 3A4 (P08684 whole entry): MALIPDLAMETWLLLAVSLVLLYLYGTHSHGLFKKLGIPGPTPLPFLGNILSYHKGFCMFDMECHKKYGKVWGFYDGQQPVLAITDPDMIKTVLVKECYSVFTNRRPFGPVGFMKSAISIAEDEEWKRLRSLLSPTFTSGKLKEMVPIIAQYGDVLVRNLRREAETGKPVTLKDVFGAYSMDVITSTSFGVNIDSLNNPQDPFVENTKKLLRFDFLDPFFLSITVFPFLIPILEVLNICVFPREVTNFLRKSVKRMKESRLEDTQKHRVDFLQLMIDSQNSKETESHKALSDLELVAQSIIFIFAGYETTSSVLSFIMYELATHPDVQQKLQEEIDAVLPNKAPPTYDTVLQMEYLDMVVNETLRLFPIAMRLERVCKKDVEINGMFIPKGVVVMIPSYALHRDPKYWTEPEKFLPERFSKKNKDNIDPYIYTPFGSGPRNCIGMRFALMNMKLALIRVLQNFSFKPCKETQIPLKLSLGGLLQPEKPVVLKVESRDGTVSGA
Chain of 5-hydroxytryptamine receptor 2B (P41595 whole entry): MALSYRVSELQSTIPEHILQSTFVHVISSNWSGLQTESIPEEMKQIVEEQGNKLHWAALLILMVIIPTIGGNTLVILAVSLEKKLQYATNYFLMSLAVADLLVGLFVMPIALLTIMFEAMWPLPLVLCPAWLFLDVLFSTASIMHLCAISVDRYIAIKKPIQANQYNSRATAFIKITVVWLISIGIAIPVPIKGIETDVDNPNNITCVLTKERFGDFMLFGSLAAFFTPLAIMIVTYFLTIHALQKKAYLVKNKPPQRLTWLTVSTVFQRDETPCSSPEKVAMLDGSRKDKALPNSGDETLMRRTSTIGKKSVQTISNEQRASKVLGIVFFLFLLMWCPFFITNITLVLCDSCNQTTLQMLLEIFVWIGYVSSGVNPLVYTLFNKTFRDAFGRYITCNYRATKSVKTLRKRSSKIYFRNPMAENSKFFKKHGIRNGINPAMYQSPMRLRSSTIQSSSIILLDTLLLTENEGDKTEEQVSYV

The term IC50 denotes the concentration needed to halve the response being measured. In general, Ki refers to the equilibrium dissociation constant of an inhibitor or competing ligand from its target. `COc1ccc(C[C@H]2NC[C@H](O)[C@H]2OC(C)=O)cc1` [ANISOMYCIN]: the IC50 result in data set [1], in data set [2] (cho-k1), in data set [3], in data set [4] (cho-k1), in data set [5] and in data set [6] was “Not Active” throughout. Also, the inhibition constant Ki result in data set [1], in data set [2] (cho-k1), in data set [3], in data set [4] (cho-k1), in data set [5] and in data set [6] was “Not Active” throughout.

Turning to `CNNCc1ccc(C(=O)NC(C)C)cc1` [PROCARBAZINE], the IC50 entry in data set [1], in data set [2] (cho-k1), in data set [3], in data set [4] (cho-k1), in data set [5] and in data set [6] was “Not Active” each time. The Ki entry in data set [1], in data set [3] and in data set [5] was “Not Active” each time.

Regarding `Cc1onc(O)c1CC(N)C(=O)O` (racemic) [(R,S)-AMPA], the IC50 entry in data set [1], in data set [2] (cho-k1), in data set [3], in data set [4] (cho-k1), in data set [5] and in data set [6] was “Not Active” each time. Also, the Ki entry in data set [1], in data set [3] and in data set [5] was “Not Active” throughout.

Take `Cc1c(O)c(=O)ccn1C` [DEFERIPRONE]: the IC50 entry in data set [1], in data set [2] (cho-k1), in data set [3], in data set [4] (cho-k1), in data set [5] and in data set [6] was “Not Active” in each case. Further, the Ki entry in data set [1], in data set [3] and in data set [5] was “Not Active” each time.

As to `Nc1ncn([C@@H]2O[C@H](CO)[C@@H](O)[C@H]2O)c(=O)n1` [AZACITIDINE], the IC50 entry in data set [1], in data set [2] (cho-k1), in data set [3], in data set [4] (cho-k1), in data set [5] and in data set [6] was “Not Active” throughout. Moreover, the Ki entry in data set [1], in data set [3] and in data set [5] was “Not Active” in each case.

Take `CCn1cc(C(=O)O)c(=O)c2cc(F)c(N3CCNCC3)cc21` [NORFLOXACIN]: the IC50 entry in data set [1], in data set [2] (cho-k1), in data set [3], in data set [4] (cho-k1), in data set [5] and in data set [6] was “Not Active” in each case. Also, the Ki result in data set [1], in data set [3] and in data set [5] was “Not Active” in each case.

Turning to `CN(C)CCCN1c2ccccc2Sc2ccc(Cl)cc21` [CHLORPROMAZINE], the IC50 entry in data set [2] (cho-k1) is “Not Active”; in data set [3] it was “Not Active”; in data set [5] (read-out: IC50) it was 3.21 µM; in data set [6], “Not Active”. Also, the Ki result is “Not Active” in data set [3] and 2.86 µM in data set [5] (read-out: Ki).

Take `CCC(C)n1ncn(-c2ccc(N3CCN(c4ccc(OCC5COC(Cn6cncn6)(c6ccc(Cl)cc6Cl)O5)cc4)CC3)cc2)c1=O` (centres undefined) [ITRACONAZOLE]: the IC50 result in data set [2] (cho-k1), in data set [3], in data set [4] (cho-k1), in data set [5] and in data set [6] was “Not Active” each time. Besides, the Ki entry in data set [3] and in data set [5] was “Not Active” in each case.

Take `Nc1c(Br)cc(Br)cc1CN[C@H]1CC[C@H](O)CC1` [AMBROXOL]: the IC50 entry in data set [2] (cho-k1), in data set [3], in data set [4] (cho-k1), in data set [5] and in data set [6] was “Not Active” in each case. Besides, the Ki entry in data set [3] and in data set [5] was “Not Active” each time.

Consider `Cc1ccc(N(CC2=NCCN2)c2cccc(O)c2)cc1` [PHENTOLAMINE], for which the IC50 entry in data set [2] (cho-k1), in data set [3], in data set [5] and in data set [6] was “Not Active” in each case. Also, the Ki entry in data set [3] and in data set [5] was “Not Active” each time.

Take `Cc1cc(C(C#N)c2ccc(Cl)cc2)c(Cl)cc1NC(=O)c1cc(I)cc(I)c1O` (centres undefined) [CLOSANTEL]: the IC50 was 0.096 µM in data set [2] (read-out: IC50); “Not Active” in data set [3]; “Not Active” in data set [4] (cho-k1); “Not Active” in data set [5]; “Not Active” in data set [6]. The Ki was 0.054 µM in data set [2] (read-out: Ki), “Not Active” in data set [3] and “Not Active” in data set [5].

Consider `C[C@]12CC[C@@H]3c4ccc(O)cc4CC[C@H]3[C@@H]1CCC2=O` [ESTRONE], for which the IC50 entry in data set [2] (cho-k1), in data set [3], in data set [5] and in data set [6] was “Not Active” throughout. In addition, the Ki result in data set [3] and in data set [5] was “Not Active” each time.

In the case of `CC1(C)S[C@@H]2[C@H](NC(=O)Cc3ccccc3)C(=O)N2[C@H]1C(=O)O` [PENICILLIN G], the IC50 result in data set [2] (cho-k1), in data set [3], in data set [4] (cho-k1), in data set [5] and in data set [6] was “Not Active” in each case. Further, the Ki result in data set [3] and in data set [5] was “Not Active” in each case.

In the case of `CC(C)[C@H]1C(=O)N2CCC[C@H]2[C@]2(O)O[C@](NC(=O)[C@@H]3C=C4c5cccc6[nH]cc(c56)C[C@H]4N(C)C3)(C(C)C)C(=O)N12` [ERGOCORNINE], the IC50 entry in data set [2] (cho-k1) was “Not Active”; in data set [3] it was “Not Active”; in data set [4] (read-out: IC50) it was 0.011 µM; in data set [5], “Not Active”; in data set [6] it was “Not Active”. Moreover, the inhibition constant Ki result in data set [3] was “Not Active”; in data set [4] (read-out: Ki), 0.00686 µM; in data set [5], “Not Active”.

`CC(C)[C@@]1(NC(=O)[C@@H]2C[C@@H]3c4cccc5[nH]cc(c45)C[C@H]3N(C)C2)O[C@@]2(O)[C@@H]3CCCN3C(=O)[C@H](Cc3ccccc3)N2C1=O.CS(=O)(=O)O` [DIHYDROERGOCRISTINE MESYLATE]: the IC50 result in data set [2] (cho-k1) is “Not Active”; in data set [3] it was “Not Active”; in data set [4] (read-out: IC50) it was 0.0066 µM; in data set [5], “Not Active”; in data set [6], “Not Active”. Besides, the Ki entry is “Not Active” in data set [3], 0.0042 µM in data set [4] (read-out: Ki) and “Not Active” in data set [5].

In the case of `CC(C)CN(C[C@@H](O)[C@H](Cc1ccccc1)NC(=O)O[C@H]1CCOC1)S(=O)(=O)c1ccc(N)cc1`, the IC50 entry in data set [2] (cho-k1), in data set [3], in data set [4] (cho-k1), in data set [5] and in data set [6] was “Not Active” in each case. Besides, the Ki result in data set [3] and in data set [5] was “Not Active” throughout.

`CN(C)CCCN1c2ccccc2Sc2ccccc21` [PROMAZINE]: the IC50 entry in data set [2] (cho-k1) was “Not Active”; in data set [3] it was “Not Active”; in data set [4] (read-out: IC50), 0.347 µM; in data set [5] (read-out: IC50) it was 3.22 µM; in data set [6], “Not Active”. Moreover, the Ki result is “Not Active” in data set [3], 0.221 µM in data set [4] (read-out: Ki) and 2.86 µM in data set [5] (read-out: Ki).

Turning to `CN(C)c1nc(N(C)C)nc(N(C)C)n1` [ALTRETAMINE], the IC50 entry in data set [2] (cho-k1), in data set [3], in data set [4] (cho-k1), in data set [5] and in data set [6] was “Not Active” in each case. The Ki entry in data set [3] and in data set [5] was “Not Active” throughout.

Turning to `CC(=O)O[C@@]12CO[C@@H]1C[C@H](O)[C@@]1(C)C(=O)[C@H](O)C3=C(C)[C@@H](OC(=O)[C@H](O)[C@@H](NC(=O)OC(C)(C)C)c4ccccc4)C[C@@](O)([C@@H](OC(=O)c4ccccc4)[C@H]21)C3(C)C.O.O.O` [DOCETAXEL], the IC50 entry in data set [2] (cho-k1), in data set [3], in data set [4] (cho-k1), in data set [5] and in data set [6] was “Not Active” in each case. In addition, the Ki result in data set [3] and in data set [5] was “Not Active” throughout.

As for `N=C(N)NCCN1CCCCCCC1` [GUANETHIDINE], the IC50 result in data set [2] (cho-k1), in data set [3], in data set [4] (cho-k1), in data set [5] and in data set [6] was “Not Active” throughout. Besides, the Ki entry in data set [3] and in data set [5] was “Not Active” each time.

As for `COc1cc2nc(N3CCN(C(=O)C4COc5ccccc5O4)CC3)nc(N)c2cc1OC` (centres undefined) [DOXAZOSIN], the IC50 entry in data set [2] (cho-k1), in data set [3], in data set [5] and in data set [6] was “Not Active” throughout. For the same compound, the Ki entry in data set [3] and in data set [5] was “Not Active” throughout.

Regarding `CC(C)(Oc1ccc(Cl)cc1)C(=O)O` [CLOFIBRIC ACID], the IC50 entry in data set [2] (cho-k1), in data set [3], in data set [4] (cho-k1), in data set [5] and in data set [6] was “Not Active” in each case. Moreover, the Ki entry in data set [3] and in data set [5] was “Not Active” each time.

Source of the values: ChEMBL document CHEMBL1909046, “DrugMatrix in vitro pharmacology data”.
